Consider 14 compounds from US20240116985A1, “STAPLED PEPTIDES AND METHODS THEREOF” (priority 2020, published 2024).

The target in this test is T1, full-length beta-Catenin (Uniprot ID P35222) (Homo sapiens, UniProt P35222).
T1 construct: 10 nM full-length beta-Catenin (Uniprot ID P35222)
T1 sequence (P35222 1-781): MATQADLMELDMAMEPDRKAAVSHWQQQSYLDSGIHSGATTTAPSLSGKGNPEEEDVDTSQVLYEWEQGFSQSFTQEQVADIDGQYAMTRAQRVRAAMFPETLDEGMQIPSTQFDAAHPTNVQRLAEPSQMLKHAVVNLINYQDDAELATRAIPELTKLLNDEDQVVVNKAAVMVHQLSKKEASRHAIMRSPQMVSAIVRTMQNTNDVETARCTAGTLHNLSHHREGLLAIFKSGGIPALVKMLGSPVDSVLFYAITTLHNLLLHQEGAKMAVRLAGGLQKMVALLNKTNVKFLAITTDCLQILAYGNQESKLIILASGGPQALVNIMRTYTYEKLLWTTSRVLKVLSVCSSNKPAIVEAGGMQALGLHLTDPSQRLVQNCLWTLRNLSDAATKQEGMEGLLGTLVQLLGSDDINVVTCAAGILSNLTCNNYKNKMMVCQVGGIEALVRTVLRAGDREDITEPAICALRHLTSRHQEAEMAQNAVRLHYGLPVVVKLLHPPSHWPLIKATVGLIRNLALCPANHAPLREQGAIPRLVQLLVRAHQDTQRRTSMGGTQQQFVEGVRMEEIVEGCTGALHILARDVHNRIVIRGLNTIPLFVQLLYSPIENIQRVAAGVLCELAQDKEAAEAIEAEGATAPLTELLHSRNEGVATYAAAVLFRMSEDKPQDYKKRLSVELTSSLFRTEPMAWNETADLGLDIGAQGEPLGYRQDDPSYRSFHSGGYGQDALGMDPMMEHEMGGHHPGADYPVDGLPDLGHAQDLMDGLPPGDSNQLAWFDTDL
Put plainly: Fluorescence polarization IC50 (beta-catenin / 5FAM-TCF4 10-53 competition). The test is classed as binding. Conditions: fluorescence polarization; read-out: beta-Catenin FP IC50. On the technique in general: Fluorescence polarisation rises when a labelled molecule tumbles more slowly, as on binding a larger partner.

For the compound `CC(=O)N1CCC[C@]12CC=CCCCC1(CCCC=CCCCOC(=O)N3CC[C@@](C(=O)N[C@@H](Cc4ccccc4)C(=O)N[C@@H](Cc4csc5ccccc45)C(=O)N[C@@H](CCC(N)=O)C(N)=O)(C3)NC(=O)[C@H](CC(C)C)NC(=O)[C@H](Cc3ccccc3)NC(=O)[C@H](C)NC(=O)[C@H](CCCCNC(C)C)NC(=O)[C@H](CCO)NC(=O)[C@H](CC(=O)O)NC1=O)NC(=O)[C@H](CC1CCCCC1)NC(=O)[C@H](CC(N)=O)NC2=O` (stereo partly drawn) [I-2345, Ac-PL3-Asn-Cha-B5-Asp-Hse-iPrLys-Ala-Phe-Leu-PyrS2-Phe-BztA-Gln-NH2], the 50% inhibitory concentration (IC50) – broadly, the concentration needed to halve the response being measured – was found to be 1270 nM.

On to `CC(=O)N1CCC[C@]12CC=CCCCC1(CCCC=CCCCOC(=O)N3CC[C@@](C(=O)N[C@@H](Cc4ccccc4)C(=O)N[C@@H](Cc4csc5ccccc45)C(=O)N[C@@H](CCC(N)=O)C(N)=O)(C3)NC(=O)[C@H](CC(C)C)NC(=O)[C@H](Cc3ccccc3)NC(=O)[C@H](C)NC(=O)[C@H](CCCCNC(C)C)NC(=O)[C@H](CCCCN)NC(=O)[C@H](CC(=O)O)NC1=O)NC(=O)[C@H](CC1CCCCC1)NC(=O)[C@H](CC(N)=O)NC2=O` (stereo partly drawn) [I-2346, Ac-PL3-Asn-Cha-B5-Asp-Lys-iPrLys-Ala-Phe-Leu-PyrS2-Phe-BztA-Gln-NH2], for which the IC50 amounted to 422 nM.

Regarding `CC(=O)N1CCC[C@]12CC=CCCCC1(CCCC=CCCCOC(=O)N3CC[C@@](C(=O)N[C@@H](Cc4ccccc4)C(=O)N[C@@H](Cc4csc5ccccc45)C(=O)N[C@@H](CCC(N)=O)C(N)=O)(C3)NC(=O)[C@H](CC(C)C)NC(=O)[C@H](Cc3ccccc3)NC(=O)[C@H](C)NC(=O)[C@H](CCCCNC(C)C)NC(=O)[C@H](CCCCN)NC(=O)[C@H](CC(=O)O)NC1=O)NC(=O)[C@H](CC1CCCCC1)NC(=O)[C@H](CC(N)=O)NC2=O` (stereo partly drawn) [I-2347, Ac-PL3-Asn-Cha-B5-Asp-Lys-iPrLys-Ala-Phe-Leu-PyrS2-Phe-BztA-Gln-NH2], the IC50 was determined as 5630 nM.

On to `CC(=O)N1CCC[C@]12CC=CCCCC1(CCCC=CCCCOC(=O)N3CC[C@@](C(=O)N[C@@H](Cc4ccccc4)C(=O)N[C@@H](Cc4csc5ccccc45)C(=O)N[C@@H](CCC(N)=O)C(N)=O)(C3)NC(=O)[C@H](CC(C)C)NC(=O)[C@H](Cc3ccccc3)NC(=O)[C@H](C)NC(=O)[C@H](CCCCNC(C)C)NC(=O)[C@H](Cc3c[nH]cn3)NC(=O)[C@H](CC(=O)O)NC1=O)NC(=O)[C@H](CC1CCCCC1)NC(=O)[C@H](CC(N)=O)NC2=O` (stereo partly drawn) [I-2348, Ac-PL3-Asn-Cha-B5-Asp-His-iPrLys-Ala-Phe-Leu-PyrS2-Phe-BztA-Gln-NH2], for which the IC50 was 179 nM.

Regarding `CC(=O)N1CCC[C@]12CC=CCCCC1(CCCC=CCCCOC(=O)N3CC[C@@](C(=O)N[C@@H](Cc4ccccc4)C(=O)N[C@@H](Cc4csc5ccccc45)C(=O)N[C@@H](CCC(N)=O)C(N)=O)(C3)NC(=O)[C@H](CC(C)C)NC(=O)[C@H](Cc3ccccc3)NC(=O)[C@H](C)NC(=O)[C@H](CCCCNC(C)C)NC(=O)[C@H](Cc3c[nH]cn3)NC(=O)[C@H](CC(=O)O)NC1=O)NC(=O)[C@H](CC1CCCCC1)NC(=O)[C@H](CC(N)=O)NC2=O` (stereo partly drawn) [I-2349, Ac-PL3-Asn-Cha-B5-Asp-His-iPrLys-Ala-Phe-Leu-PyrS2-Phe-BztA-Gln-NH2], the IC50 worked out at 1160 nM.

On to `CC(=O)N1CCC[C@]12CC=CCCCC1(CCCC=CCCCOC(=O)N3CC[C@@](C(=O)N[C@@H](Cc4ccccc4)C(=O)N[C@@H](Cc4csc5ccccc45)C(=O)N[C@@H](Cc4c[nH]cn4)C(N)=O)(C3)NC(=O)[C@H](CC(C)C)NC(=O)[C@H](Cc3ccccc3)NC(=O)[C@H](C)NC(=O)[C@H](CCCCNC(C)C)NC(=O)[C@H](CCC(N)=O)NC(=O)[C@H](CC(=O)O)NC1=O)NC(=O)[C@H](CC1CCCCC1)NC(=O)[C@H](CC(N)=O)NC2=O` (stereo partly drawn) [I-2351, Ac-PL3-Asn-Cha-B5-Asp-Gln-iPrLys-Ala-Phe-Leu-PyrS2-Phe-BztA-His-NH2], for which the IC50 turned out to be 187 nM.

As for `CC(=O)N1CCC[C@]12CC=CCCCC1(CCCC=CCCCOC(=O)N3CC[C@@](C(=O)N[C@@H](Cc4ccccc4)C(=O)N[C@@H](Cc4csc5ccccc45)C(=O)N[C@@H](C)C(N)=O)(C3)NC(=O)[C@H](CC(C)C)NC(=O)[C@H](Cc3ccccc3)NC(=O)[C@H](C)NC(=O)[C@H](CCCCNC(C)C)NC(=O)[C@H](CCC(N)=O)NC(=O)[C@H](CC(=O)O)NC1=O)NC(=O)[C@H](CC1CCCCC1)NC(=O)[C@H](CC(N)=O)NC2=O` (stereo partly drawn) [I-2352, Ac-PL3-Asn-Cha-B5-Asp-Gln-iPrLys-Ala-Phe-Leu-PyrS2-Phe-BztA-Ala-NH2], the concentration for half-maximal inhibition (IC50) turned out to be 211 nM.

In the case of `CC(=O)N1CCC[C@]12CC=CCCCC1(CCCC=CCCCOC(=O)N3CC[C@@](C(=O)N[C@@H](Cc4ccccc4)C(=O)N[C@@H](Cc4csc5ccccc45)C(=O)N[C@@H](CCC(N)=O)C(N)=O)(C3)NC(=O)[C@H](CC(C)C)NC(=O)[C@H](Cc3ccccc3)NC(=O)[C@H](C)NC(=O)[C@H](CCCCNC(C)C)NC(=O)[C@H](CCC(N)=O)NC(=O)[C@H](CC(=O)O)NC1=O)NC(=O)[C@H](CC1CCCCC1)NC(=O)[C@H](CCO)NC2=O` (stereo partly drawn) [I-2353, Ac-PL3-Hse-Cha-B5-Asp-Gln-iPrLys-Ala-Phe-Leu-PyrS2-Phe-BztA-Gln-NH2], the IC50 worked out at 2760 nM.

Turning to `CC(=O)N1CCC[C@]12CC=CCCCC1(CCCC=CCCCOC(=O)N3CC[C@@](C(=O)N[C@@H](Cc4ccccc4)C(=O)N[C@@H](Cc4csc5ccccc45)C(=O)N[C@@H](CCC(N)=O)C(N)=O)(C3)NC(=O)[C@H](CC(C)C)NC(=O)[C@H](Cc3ccccc3)NC(=O)[C@H](C)NC(=O)[C@H](CCO)NC(=O)[C@H](CCC(N)=O)NC(=O)[C@H](CC(=O)O)NC1=O)NC(=O)[C@H](CC1CCCCC1)NC(=O)[C@H](CC(N)=O)NC2=O` (stereo partly drawn) [I-2355, Ac-PL3-Asn-Cha-B5-Asp-Gln-Hse-Ala-Phe-Leu-PyrS2-Phe-BztA-Gln-NH2], the IC50 stood at 417 nM.

For `CCOC(=O)C[C@@H]1NC(=O)[C@]2(CC=CCCCC3(CCCC=CCCCOC(=O)N4CC[C@@](C(=O)N[C@@H](Cc5ccsc5)C(=O)N[C@@H](Cc5csc6ccccc56)C(=O)N[C@@H](CCC(N)=O)C(N)=O)(C4)NC(=O)[C@H](CC(C)C)NC(=O)[C@H](Cc4ccccc4)NC(=O)[C@H](C)NC(=O)[C@H](C)NC(=O)[C@H](CC(=O)O)NC(=O)[C@H](CC(=O)O)NC3=O)NC(=O)[C@H](CC(C)(C)C)NC1=O)CCCN2C(C)=O` (stereo partly drawn) [I-2356, Ac-PL3-[Et]AspE-Npg-B5-Asp-Asp-Ala-Ala-Phe-Leu-PyrS2-3Thi-BztA-Gln-NH2], the IC50 came out at 5270 nM.

On to `CCOC(=O)C[C@@H]1NC(=O)[C@H](CC(=O)O)NC(=O)C2(CCCC=CCCCOC(=O)N3CC[C@@](C(=O)N[C@@H](Cc4ccsc4)C(=O)N[C@@H](Cc4csc5ccccc45)C(=O)N[C@@H](CCC(N)=O)C(N)=O)(C3)NC(=O)[C@H](CC(C)C)NC(=O)[C@H](Cc3ccccc3)NC(=O)[C@H](C)NC(=O)[C@H](C)NC1=O)CCCC=CC[C@]1(CCCN1C(C)=O)C(=O)N[C@@H](CC(=O)O)C(=O)N[C@@H](CC(C)(C)C)C(=O)N2` (stereo partly drawn) [I-2358, Ac-PL3-Asp-Npg-B5-Asp-[Et]AspE-Ala-Ala-Phe-Leu-PyrS2-3Thi-BztA-Gln-NH2], for which the IC50 stood at 463 nM.

With `COC(=O)N1CCC[C@]12CC=CCCCC1(CCCC=CCCCOC(=O)N3CC[C@@](C(=O)N[C@@H](Cc4ccsc4)C(=O)N[C@@H](Cc4csc5ccccc45)C(=O)N[C@@H](Cc4c[nH]cn4)C(N)=O)(C3)NC(=O)[C@H](CCC(N)=O)NC(=O)[C@H](Cc3ccccc3)NC(=O)[C@H](C)NC(=O)[C@H](C)NC(=O)[C@H](CC(=O)O)NC(=O)[C@H](CC(=O)O)NC1=O)NC(=O)[C@H](CC(C)(C)C)NC(=O)[C@H](CC(=O)O)NC2=O` (stereo partly drawn) [I-2362, CO2Me-PL3-Asp-Npg-B5-Asp-Asp-Ala-Ala-Phe-Gln-PyrS2-3Thi-BztA-His-NH2], the half-maximal inhibitory concentration (IC50) was determined as 66 nM.

In the case of `CCCCOC(=O)N1CCC[C@]12CC=CCCCC1(CCCC=CCCCOC(=O)N3CC[C@@](C(=O)N[C@@H](Cc4ccsc4)C(=O)N[C@@H](Cc4csc5ccccc45)C(=O)N[C@@H](Cc4c[nH]cn4)C(N)=O)(C3)NC(=O)[C@H](CCC(N)=O)NC(=O)[C@H](Cc3ccccc3)NC(=O)[C@H](C)NC(=O)[C@H](C)NC(=O)[C@H](CC(=O)O)NC(=O)[C@H](CC(=O)O)NC1=O)NC(=O)[C@H](CC(C)(C)C)NC(=O)[C@H](CC(=O)O)NC2=O` (stereo partly drawn) [I-2363, CO2Bu-PL3-Asp-Npg-B5-Asp-Asp-Ala-Ala-Phe-Gln-PyrS2-3Thi-BztA-His-NH2], the IC50 was 44 nM.

Consider `CC(C)COC(=O)N1CCC[C@]12CC=CCCCC1(CCCC=CCCCOC(=O)N3CC[C@@](C(=O)N[C@@H](Cc4ccsc4)C(=O)N[C@@H](Cc4csc5ccccc45)C(=O)N[C@@H](Cc4c[nH]cn4)C(N)=O)(C3)NC(=O)[C@H](CCC(N)=O)NC(=O)[C@H](Cc3ccccc3)NC(=O)[C@H](C)NC(=O)[C@H](C)NC(=O)[C@H](CC(=O)O)NC(=O)[C@H](CC(=O)O)NC1=O)NC(=O)[C@H](CC(C)(C)C)NC(=O)[C@H](CC(=O)O)NC2=O` (stereo partly drawn) [I-2364, CO2iBu-PL3-Asp-Npg-B5-Asp-Asp-Ala-Ala-Phe-Gln-PyrS2-3Thi-BztA-His-NH2], for which the IC50 came to 116 nM.
